Experiments:
Settings in all cases: treatment: drug + dasatinib (fixed dose, not stated); 5 days
A498 [1] = experiment: GI50 of drug in presence of dasatinib; higher = less potent
Procedure: (§1)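 Primary HTS combination arm: 8 RCC cell lines treated with 8 doses (up to 10 uM) of each library drug plus a fixed dose of dasatinib (dose not stated) for 5 days; viability read by CellTiter-Glo and normalised to DMSO. GI50 was fitted with XLfit, AUC is the area under the dose-response curve, and minimum viability is the lowest fraction of DMSO viability across doses.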

UO-31 [2] = experiment: as above
Procedure: as §1

TK-10 [3] = experiment: as above
Procedure: as §1

769-P [4] = experiment: as above
Procedure: as §1

786-O [5] = experiment: as above
Procedure: as §1

ACHN [6] = experiment: as above
Procedure: as §1

SN12C [7] = experiment: as above
Procedure: as §1

CAKI-1 [8] = experiment: as above
Procedure: as §1

A498 [9] = experiment: minimum viability across doses, drug + dasatinib, relative to DMSO (fraction); higher = less growth inhibition
Procedure: as §1

UO-31 [10] = experiment: as above
Procedure: as §1

TK-10 [11] = experiment: as above
Procedure: as §1

769-P [12] = experiment: as above
Procedure: as §1

786-O [13] = experiment: as above
Procedure: as §1

ACHN [14] = experiment: as above
Procedure: as §1

SN12C [15] = experiment: as above
Procedure: as §1

CAKI-1 [16] = experiment: as above
Procedure: as §1

A498 [17] = experiment: AUC of dose-response viability curve, drug + dasatinib, normalised to DMSO (arbitrary (AUC of normalised viability)); higher = less growth inhibition
Procedure: as §1

UO-31 [18] = experiment: as above
Procedure: as §1

TK-10 [19] = experiment: as above
Procedure: as §1

769-P [20] = experiment: as above
Procedure: as §1

786-O [21] = experiment: as above
Procedure: as §1

ACHN [22] = experiment: as above
Procedure: as §1

SN12C [23] = experiment: as above
Procedure: as §1

CAKI-1 [24] = experiment: as above
Procedure: as §1

GI50 of drug (786-O [5])	GI50 of drug (ACHN [6])	Compound	GI50 of drug (A498 [1])	GI50 of drug (UO-31 [2])	GI50 of drug (TK-10 [3])	GI50 of drug (769-P [4])	GI50 of drug (SN12C [7])	GI50 of drug (CAKI-1 [8])	minimum viability across doses (A498 [9])	minimum viability across doses (UO-31 [10])	minimum viability across doses (TK-10 [11])	minimum viability across doses (769-P [12])	minimum viability across doses (786-O [13])	minimum viability across doses (ACHN [14])	minimum viability across doses (SN12C [15])	minimum viability across doses (CAKI-1 [16])	AUC of dose-response viability curve (A498 [17])	AUC of dose-response viability curve (UO-31 [18])	AUC of dose-response viability curve (TK-10 [19])	AUC of dose-response viability curve (769-P [20])	AUC of dose-response viability curve (786-O [21])	AUC of dose-response viability curve (ACHN [22])	AUC of dose-response viability curve (SN12C [23])	AUC of dose-response viability curve (CAKI-1 [24])
128 nM	246 nM	Cc1ncc(-c2ccnc(Nc3ccc(S(C)(=O)=O)cc3)n2)n1C(C)C [AZD5438] + Cc1nc(Nc2ncc(C(=O)Nc3c(C)cccc3Cl)s2)cc(N2CCN(CCO)CC2)n1 [dasatinib]	1550 nM	367 nM	529 nM	474 nM	1760 nM	238 nM	0.0116	0.00804	0.127	0.0188	0.00349	0.0173	0.0122	0.0627	2.78	2.05	2.02	1.82	1.3	1.46	2.05	1.65
25 nM	5.85 nM	NC(=O)Nc1cc(-c2cccc(F)c2)sc1C(=O)N[C@H]1CCCNC1 [AZD7762] + Cc1nc(Nc2ncc(C(=O)Nc3c(C)cccc3Cl)s2)cc(N2CCN(CCO)CC2)n1 [dasatinib]	261 nM	99.7 nM	59.6 nM	52.4 nM	315 nM	59.1 nM	0.0562	0.0113	0.0198	0.0473	0.00579	0.0359	0.00591	0.00368	2.29	2.04	1.26	1.32	0.834	0.645	1.56	1.19
7.26 nM	< 3 nM	COc1ccc(-c2ccc3c(N4CCOC[C@@H]4C)nc(N4CCOC[C@@H]4C)nc3n2)cc1CO [AZD8055] + Cc1nc(Nc2ncc(C(=O)Nc3c(C)cccc3Cl)s2)cc(N2CCN(CCO)CC2)n1 [dasatinib]	100 nM	65.2 nM	36.9 nM	59.9 nM	39.8 nM	24 nM	0.182	0.00778	0.053	0.0691	0.018	0.044	0.135	0.0255	1.68	1.29	1.21	1.22	0.846	0.585	1.3	0.988
953 nM	4.16 nM	CN(C)C/C=C/C(=O)Nc1cc2c(Nc3ccc(F)c(Cl)c3)ncnc2cc1O[C@H]1CCOC1 [Afatinib (BIBW2992)] + Cc1nc(Nc2ncc(C(=O)Nc3c(C)cccc3Cl)s2)cc(N2CCN(CCO)CC2)n1 [dasatinib]	1490 nM	885 nM	72.5 nM	29.1 nM	2300 nM	241 nM	0.00955	0.00619	0.0817	0.0233	0.00818	0.00184	0.0274	0.0121	2.54	1.88	1.58	1.31	1.92	1.02	2.02	1.57
1310 nM	1390 nM	S=C(NCc1ccc2c(c1)OCO2)N1CCN(c2ncnc3c2oc2ccccc23)CC1 [Amuvatinib (MP-470)] + Cc1nc(Nc2ncc(C(=O)Nc3c(C)cccc3Cl)s2)cc(N2CCN(CCO)CC2)n1 [dasatinib]	4380 nM	2680 nM	2920 nM	1830 nM	1970 nM	> 10000 nM	0.245	0.0639	0.263	0.282	0.0475	0.156	0.0599	0.57	3.02	3.23	2.39	2.2	1.94	1.9	2.03	2.31
1240 nM	1230 nM	S=C(NCc1ccc2c(c1)OCO2)N1CCN(c2ncnc3c2oc2ccccc23)CC1 [Amuvatinib (MP-470)_R2] + Cc1nc(Nc2ncc(C(=O)Nc3c(C)cccc3Cl)s2)cc(N2CCN(CCO)CC2)n1 [dasatinib]	3370 nM	2840 nM	2640 nM	2550 nM	1630 nM	> 10000 nM	0.251	0.0367	0.26	0.219	0.0149	0.17	0.0319	0.583	2.86	3.36	2.24	2.38	1.87	1.85	2.06	2.48
> 10000 nM	6530 nM	CS(=O)(=O)O.N#CC1(c2ccc(NC(=O)c3cccnc3NCc3ccncc3)cc2)CCCC1 [Apatinib (YN968D1)] + Cc1nc(Nc2ncc(C(=O)Nc3c(C)cccc3Cl)s2)cc(N2CCN(CCO)CC2)n1 [dasatinib]	> 10000 nM	> 10000 nM	> 10000 nM	9470 nM	> 10000 nM	> 10000 nM	0.874	0.988	0.636	0.49	0.624	0.389	0.656	0.572	3.76	4.78	2.5	2.43	2.64	2.18	2.45	2.39
> 10000 nM	1990 nM	O=C1C(=O)N(Cc2ccc(Cl)c(Cl)c2)c2ccccc21 [Apoptosis Activator 2] + Cc1nc(Nc2ncc(C(=O)Nc3c(C)cccc3Cl)s2)cc(N2CCN(CCO)CC2)n1 [dasatinib]	8370 nM	9070 nM	7390 nM	8610 nM	4600 nM	2230 nM	0.411	0.211	0.454	0.486	0.0758	0.295	0.265	0.187	3.56	4.31	2.34	2.46	1.72	1.92	2.47	2.19
> 10000 nM	2980 nM	CNC(=O)c1ccccc1Sc1ccc2c(/C=C/c3ccccn3)n[nH]c2c1 [Axitinib] + Cc1nc(Nc2ncc(C(=O)Nc3c(C)cccc3Cl)s2)cc(N2CCN(CCO)CC2)n1 [dasatinib]	7690 nM	7850 nM	> 10000 nM	1400 nM	622 nM	439 nM	0.457	0.392	0.715	0.159	0.635	0.271	0.262	0.162	3.26	3.37	2.91	2.02	2.8	2.14	2.08	1.8
81.3 nM	34.7 nM	Cn1c(=O)n(-c2ccc(C(C)(C)C#N)cc2)c2c3cc(-c4cnc5ccccc5c4)ccc3ncc21 [BEZ235 (NVP-BEZ235)] + Cc1nc(Nc2ncc(C(=O)Nc3c(C)cccc3Cl)s2)cc(N2CCN(CCO)CC2)n1 [dasatinib]	152 nM	129 nM	306 nM	59.6 nM	164 nM	73.7 nM	0.0638	0.00603	0.122	0.0926	0.0643	0.0631	0.146	0.0361	1.65	1.66	1.84	1.35	1.44	1.23	1.63	1.35
990 nM	26.6 nM	CCN1CCN(c2ccc(Nc3cc(N(C)C(=O)Nc4c(Cl)c(OC)cc(OC)c4Cl)ncn3)cc2)CC1 [BGJ398 (NVP-BGJ398)] + Cc1nc(Nc2ncc(C(=O)Nc3c(C)cccc3Cl)s2)cc(N2CCN(CCO)CC2)n1 [dasatinib]	9590 nM	1260 nM	1350 nM	2890 nM	131 nM	26.6 nM	0.435	0.00819	0.221	0.234	0.249	0.0494	0.0804	0.0483	2.87	2.64	2.18	2.3	1.97	1.29	1.66	1.15
10.5 nM	27.8 nM	CC[C@@H]1C(=O)N(C)c2cnc(Nc3ccc(C(=O)N[C@H]4CC[C@H](N5CCN(CC6CC6)CC5)CC4)cc3OC)nc2N1C(C)C [BI6727 (Volasertib)] + Cc1nc(Nc2ncc(C(=O)Nc3c(C)cccc3Cl)s2)cc(N2CCN(CCO)CC2)n1 [dasatinib]	138 nM	151 nM	160 nM	43.2 nM	58.6 nM	55.2 nM	0.0361	0.0151	0.00827	0.0202	0.0043	0.00653	0.0772	0.00782	1.83	2.02	1.61	1.16	0.664	1.13	1.37	1.25
8.79 nM	4.47 nM	CC[C@@H]1C(=O)N(C)c2cnc(Nc3ccc(C(=O)NC4CCN(C)CC4)cc3OC)nc2N1C1CCCC1 [BI 2536] + Cc1nc(Nc2ncc(C(=O)Nc3c(C)cccc3Cl)s2)cc(N2CCN(CCO)CC2)n1 [dasatinib]	38.4 nM	61.4 nM	405 nM	56.8 nM	32.1 nM	7.85 nM	0.0692	0.0114	0.0551	0.0343	0.0183	0.0392	0.052	0.0866	1.51	1.3	1.68	1.28	0.643	0.778	1.24	0.981

Compound	GI50 of drug (786-O [5])	GI50 of drug (ACHN [6])	GI50 of drug (A498 [1])	GI50 of drug (UO-31 [2])	GI50 of drug (TK-10 [3])	GI50 of drug (769-P [4])	GI50 of drug (SN12C [7])	GI50 of drug (CAKI-1 [8])	minimum viability across doses (A498 [9])	minimum viability across doses (UO-31 [10])	minimum viability across doses (TK-10 [11])	minimum viability across doses (769-P [12])	minimum viability across doses (786-O [13])	minimum viability across doses (ACHN [14])	minimum viability across doses (SN12C [15])	minimum viability across doses (CAKI-1 [16])	AUC of dose-response viability curve (A498 [17])	AUC of dose-response viability curve (UO-31 [18])	AUC of dose-response viability curve (TK-10 [19])	AUC of dose-response viability curve (769-P [20])	AUC of dose-response viability curve (786-O [21])	AUC of dose-response viability curve (ACHN [22])	AUC of dose-response viability curve (SN12C [23])	AUC of dose-response viability curve (CAKI-1 [24])
CCN1CCN(C(=O)Cc2ccc(Nc3ncc(F)c(Nc4ccc(C(=O)Nc5ccccc5Cl)cc4)n3)cc2)CC1 [Aurora A Inhibitor I] + Cc1nc(Nc2ncc(C(=O)Nc3c(C)cccc3Cl)s2)cc(N2CCN(CCO)CC2)n1 [dasatinib]	164 nM	130 nM	8980 nM	552 nM	1010 nM	652 nM	1190 nM	281 nM	0.53	0.0547	0.275	0.0246	0.0991	0.0307	0.00416	0.00201	3.16	2.58	2.18	1.98	1.57	1.53	2.09	1.63

From the supplement of paper PMC8149375
